The values that follow come from article PMC7316994, “In Vitro Pharmacological Profile of a New Small Molecule Bradykinin B2 Receptor Antagonist” (Frontiers in Pharmacology, 2020).

Some results are limits rather than exact numbers.

Usually IC50 stands for the midpoint of a concentration-inhibition curve. Higher therefore signals lower potency. The term inhibition denotes the change of the read-out against control, counted positive when it falls.

One data set deals with T1, dog B2 receptor (Canis lupus familiaris, UniProt Q9BDQ4).
T1 sequence (Q9BDQ4 1-392): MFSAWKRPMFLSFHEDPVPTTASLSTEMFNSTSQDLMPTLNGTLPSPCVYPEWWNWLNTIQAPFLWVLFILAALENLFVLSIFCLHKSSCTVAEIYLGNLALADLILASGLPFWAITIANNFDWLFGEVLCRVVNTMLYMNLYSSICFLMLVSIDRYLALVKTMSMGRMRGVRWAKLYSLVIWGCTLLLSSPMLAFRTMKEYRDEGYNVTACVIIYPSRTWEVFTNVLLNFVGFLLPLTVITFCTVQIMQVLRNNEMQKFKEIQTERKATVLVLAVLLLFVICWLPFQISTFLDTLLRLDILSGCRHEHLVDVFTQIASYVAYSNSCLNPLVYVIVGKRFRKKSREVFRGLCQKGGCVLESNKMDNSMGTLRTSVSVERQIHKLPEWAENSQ
Briefly: Ca^2+ mobilization assay, HEK293T cells. In kind it is cell-based.

The test system of a further data set is Thyroid hormone. Briefly: radioligand binding (Table S2). As to conditions: [125I] Triiodothyronine, Rat liver.
For data set [1], the target named is T2, Glutamate, metabotropic, mGlu5 (Homo sapiens, UniProt P41594).
T2 construct: host or cells: CHO-K1 cells
T2 sequence (P41594 21-1212): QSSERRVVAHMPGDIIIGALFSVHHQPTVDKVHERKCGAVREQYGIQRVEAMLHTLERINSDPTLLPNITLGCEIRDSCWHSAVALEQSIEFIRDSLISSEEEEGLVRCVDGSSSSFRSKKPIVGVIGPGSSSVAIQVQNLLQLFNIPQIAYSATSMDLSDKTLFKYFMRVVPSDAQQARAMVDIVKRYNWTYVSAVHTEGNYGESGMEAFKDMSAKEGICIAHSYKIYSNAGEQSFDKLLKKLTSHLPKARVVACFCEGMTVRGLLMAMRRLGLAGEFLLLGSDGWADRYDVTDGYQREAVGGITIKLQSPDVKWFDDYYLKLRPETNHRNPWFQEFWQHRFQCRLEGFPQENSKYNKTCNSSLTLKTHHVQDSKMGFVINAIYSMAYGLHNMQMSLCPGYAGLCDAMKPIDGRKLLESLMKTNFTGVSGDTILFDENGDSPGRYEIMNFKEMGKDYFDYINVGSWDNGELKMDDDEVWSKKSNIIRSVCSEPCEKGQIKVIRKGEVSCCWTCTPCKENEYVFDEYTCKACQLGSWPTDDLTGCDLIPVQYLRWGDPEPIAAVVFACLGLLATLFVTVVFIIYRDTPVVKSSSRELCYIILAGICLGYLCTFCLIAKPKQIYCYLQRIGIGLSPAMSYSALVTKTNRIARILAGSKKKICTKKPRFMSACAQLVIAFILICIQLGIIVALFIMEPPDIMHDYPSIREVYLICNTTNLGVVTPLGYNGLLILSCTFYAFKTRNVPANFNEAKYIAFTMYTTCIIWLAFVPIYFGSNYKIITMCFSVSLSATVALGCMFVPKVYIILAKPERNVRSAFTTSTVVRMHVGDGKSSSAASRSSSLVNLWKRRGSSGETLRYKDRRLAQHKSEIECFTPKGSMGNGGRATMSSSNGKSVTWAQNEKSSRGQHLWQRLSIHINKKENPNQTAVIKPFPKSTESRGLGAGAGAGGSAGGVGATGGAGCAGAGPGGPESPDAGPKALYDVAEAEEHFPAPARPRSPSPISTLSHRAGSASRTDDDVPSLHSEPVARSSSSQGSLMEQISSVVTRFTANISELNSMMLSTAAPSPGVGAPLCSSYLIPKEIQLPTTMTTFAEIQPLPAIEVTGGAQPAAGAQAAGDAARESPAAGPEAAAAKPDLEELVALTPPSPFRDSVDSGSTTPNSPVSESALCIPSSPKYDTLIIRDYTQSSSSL
In words: radioligand binding (Table S2). As to conditions: [3H] Quisqualic acid, Human recombinant CHO-K1 cells.

The target in another data set is T3, Serotonin 5-HT2B (Homo sapiens, UniProt P41595).
T3 construct: host or cells: CHO cells
Briefly: radioligand binding (Table S2). The conditions noted are these: [125I] (±)DOI, Human recombinant CHO cells.

Data set [2] deals with Calcium Ca2+ channel (L-dihydropyridine site). In words: radioligand binding (Table S2). As to conditions: [3H] Nitrendepine, Rat cerebral cortex.
The subject of data set [3] is Sodium Na+ channel (site 2). In kind it is binding. The conditions noted are these: [3H] Batrachotoxinin, Rat cerebral cortex.
Data set [4] addresses T4, Bombesin BB1 (Homo sapiens, UniProt P28336).
T4 construct: host or cells: CHO cells
In words: functional assay, intracellular [Ca2+], CHO cells (Table S2). Type of data set: cell-based.

For another data set, the target named is T5, Adenosine A3 (Homo sapiens, UniProt P0DMS8).
T5 sequence (P0DMS8 1-318): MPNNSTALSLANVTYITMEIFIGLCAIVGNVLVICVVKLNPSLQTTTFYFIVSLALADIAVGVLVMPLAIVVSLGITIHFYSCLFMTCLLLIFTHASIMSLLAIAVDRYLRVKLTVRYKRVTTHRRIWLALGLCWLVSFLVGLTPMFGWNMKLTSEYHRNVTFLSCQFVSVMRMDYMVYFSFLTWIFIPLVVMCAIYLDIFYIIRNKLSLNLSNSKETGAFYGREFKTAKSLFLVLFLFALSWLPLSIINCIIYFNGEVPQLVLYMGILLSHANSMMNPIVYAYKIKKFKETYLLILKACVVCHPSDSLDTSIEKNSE
In words: radioligand binding (Table S2). The conditions noted are these: [125I] AB-MECA, Human recombinant HEK-293 cells.

The test system of a further data set is Caco-2 cell monolayer. The conditions noted are these: human, Caco-2, 60 min, 10 µM.
Data set [5] deals with T6, Cysteinyl leukotriene receptor CysLT2 (Homo sapiens, UniProt Q9NS75).
T6 construct: host or cells: HEK-293 cells
T6 sequence (Q9NS75 whole entry): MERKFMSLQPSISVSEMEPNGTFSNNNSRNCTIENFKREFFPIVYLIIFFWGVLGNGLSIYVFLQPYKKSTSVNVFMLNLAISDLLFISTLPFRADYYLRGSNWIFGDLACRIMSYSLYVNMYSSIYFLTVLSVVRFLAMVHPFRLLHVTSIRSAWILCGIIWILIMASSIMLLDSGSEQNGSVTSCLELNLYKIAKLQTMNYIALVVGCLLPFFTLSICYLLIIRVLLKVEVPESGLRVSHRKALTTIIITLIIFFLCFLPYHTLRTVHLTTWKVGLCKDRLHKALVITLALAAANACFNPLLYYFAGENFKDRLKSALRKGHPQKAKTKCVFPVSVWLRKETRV
In words: radioligand binding (Table S2). As to conditions: [3H] LTD4, Human recombinant HEK-293 cells.

The next data set deals with T7, 5-HT2A receptor (Homo sapiens, UniProt P28223).
T7 construct: other endogenously expressed receptors in the human umbilical vein; from tissue; host or cells: human umbilical vein rings
T7 sequence (P28223 whole entry): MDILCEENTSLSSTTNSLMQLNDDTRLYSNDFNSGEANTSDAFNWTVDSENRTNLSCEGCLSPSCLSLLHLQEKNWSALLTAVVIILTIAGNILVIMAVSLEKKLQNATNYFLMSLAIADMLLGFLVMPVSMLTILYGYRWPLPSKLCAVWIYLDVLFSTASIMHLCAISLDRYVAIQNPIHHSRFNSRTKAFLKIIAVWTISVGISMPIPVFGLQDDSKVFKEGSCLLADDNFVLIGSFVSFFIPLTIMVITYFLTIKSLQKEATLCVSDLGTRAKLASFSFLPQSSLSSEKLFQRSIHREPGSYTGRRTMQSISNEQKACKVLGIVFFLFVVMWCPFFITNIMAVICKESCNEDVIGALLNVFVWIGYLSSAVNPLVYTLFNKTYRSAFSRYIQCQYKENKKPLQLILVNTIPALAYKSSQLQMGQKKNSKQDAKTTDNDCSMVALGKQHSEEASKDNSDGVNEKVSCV
Briefly: umbilical vein, serotonin-induced contraction. The conditions noted are these: Compound 2 10 μM; Compound 3 1 μM. The source says:
The local ethics committee (CHU de Québec-Université Laval) had approved the project (File no. 2017-3720). Umbilical cords were obtained following elective caesarean sections; all problematic deliveries are excluded. Informed consent was obtained from the mothers. The cords were transported from the maternity ward to the laboratory in sterile Hank's balanced salt solution containing penicillin and streptomycin. Segments of umbilical veins were dissected carefully from the cords and a metal rod was inserted in the lumen. Excess connective tissue was excised and rings (2–3 mm wide) were cut. Rings of umbilical veins were suspended in 5-mL organ chambers containing oxygenated (95% O2, 5% CO2) and warmed (37°C) Krebs' solution between a metal hook and a thread loop. This solution had the following composition: NaCl 117.5 mM, KCl 4.7 mM, KH2PO4 1.2 mM, MgSO4 1.18 mM, CaCI2 2.5 mM, NaHCO3 25.0 mM, and D-glucose 5.5 mM. A baseline of one gram-weight was applied to these preparations. Changes of tension were recorded by using isometric transducers (model 52-9545, Harvard Bioscience, South Natick MA). Eight tissue baths are operated in parallel.
For this purpose, contractile responses to serotonin, acting on the 5-HT2A receptor, and U-46619, acting at the prostanoid TP receptor, were measured ([Rogines-Velo et al., 2002]; [Daray et al., 2003]).

Data set [6] concerns the target T8, Norepinephrine transporter (Homo sapiens, UniProt P23975).
T8 construct: host or cells: CHO cells
Briefly: radioligand binding (Table S2). As to conditions: [3H] Nisoxetine, Human recombinant CHO cells.

The next data set concerns the target T9, Dopamine transporter (Homo sapiens, UniProt Q01959).
T9 construct: host or cells: CHO cells
Briefly: radioligand binding (Table S2). The conditions noted are these: [3H] BTCP, Human recombinant CHO cells.

A further data set has as its target T10, Serotonin 5-HT2C (Homo sapiens, UniProt P28335).
T10 construct: host or cells: HEK-293 cells
In words: radioligand binding (Table S2). As to conditions: [3H] Mesulergine, Human recombinant HEK-293 cells.

For data set [7], the target named is Cholecystokinin CCK2 (CCKB) (Homo sapiens, UniProt P32239). Briefly: radioligand binding (Table S2). The conditions noted are these: [125I] CCK-8, Human recombinant Chem-1 cells.
Sequence of Cholecystokinin CCK2 (CCKB) (P32239 whole entry): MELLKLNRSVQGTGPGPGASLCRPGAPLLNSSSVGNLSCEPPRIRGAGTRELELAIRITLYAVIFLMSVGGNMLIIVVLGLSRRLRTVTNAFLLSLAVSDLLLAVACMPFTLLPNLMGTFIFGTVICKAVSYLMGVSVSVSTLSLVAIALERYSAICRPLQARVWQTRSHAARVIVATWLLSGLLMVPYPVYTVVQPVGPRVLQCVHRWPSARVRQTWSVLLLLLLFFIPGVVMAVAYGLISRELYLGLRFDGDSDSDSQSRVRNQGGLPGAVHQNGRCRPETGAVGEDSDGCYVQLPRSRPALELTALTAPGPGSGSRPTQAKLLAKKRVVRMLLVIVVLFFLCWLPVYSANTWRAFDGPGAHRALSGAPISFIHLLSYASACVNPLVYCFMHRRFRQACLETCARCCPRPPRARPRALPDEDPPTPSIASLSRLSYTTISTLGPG
The target in a further data set is Angiotensine AT1 (Homo sapiens, UniProt P30556). In words: radioligand binding (Table S2). The conditions noted are these: read-out: % Inhibition @ 10 µM.
The next data set addresses Muscarinic M1 (Homo sapiens, UniProt P11229). In words: radioligand binding (Table S2). The conditions noted are these: read-out: % Inhibition @ 10 µM.
In another data set the target is T11, Serotonin 5-HT2A (Homo sapiens, UniProt P28223).
T11 construct: host or cells: HEK-293 cells
Briefly: radioligand binding (Table S2). As to conditions: [125I] (±)DOI, Human recombinant HEK-293 cells.

Data set [8] deals with T4, Bombesin BB1. Briefly: radioligand binding (Table S2). The conditions noted are these: [125I] [Tyr4]-bombesin, Human recombinant CHO cells.
Another data set deals with T12, Serotonin 5-HT1B (Rattus norvegicus, UniProt P28564).
T12 construct: tissue Eurofins; host or cells: rat cerebral cortex
T12 sequence (P28564 whole entry): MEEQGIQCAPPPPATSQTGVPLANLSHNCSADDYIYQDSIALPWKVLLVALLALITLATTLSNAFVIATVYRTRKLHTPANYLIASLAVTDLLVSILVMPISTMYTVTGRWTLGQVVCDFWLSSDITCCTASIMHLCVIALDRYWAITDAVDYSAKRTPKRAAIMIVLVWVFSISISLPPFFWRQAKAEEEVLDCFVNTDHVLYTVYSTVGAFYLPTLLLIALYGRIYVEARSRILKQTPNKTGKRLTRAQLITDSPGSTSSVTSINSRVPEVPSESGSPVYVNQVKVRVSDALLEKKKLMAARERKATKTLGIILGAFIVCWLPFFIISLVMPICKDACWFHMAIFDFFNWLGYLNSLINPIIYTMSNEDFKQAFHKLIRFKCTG
In words: radioligand binding (Table S2). The conditions noted are these: [125I] CYP (+ 30 µM isoproterenol), Rat cerebral cortex.

T4 sequence (P28336 whole entry): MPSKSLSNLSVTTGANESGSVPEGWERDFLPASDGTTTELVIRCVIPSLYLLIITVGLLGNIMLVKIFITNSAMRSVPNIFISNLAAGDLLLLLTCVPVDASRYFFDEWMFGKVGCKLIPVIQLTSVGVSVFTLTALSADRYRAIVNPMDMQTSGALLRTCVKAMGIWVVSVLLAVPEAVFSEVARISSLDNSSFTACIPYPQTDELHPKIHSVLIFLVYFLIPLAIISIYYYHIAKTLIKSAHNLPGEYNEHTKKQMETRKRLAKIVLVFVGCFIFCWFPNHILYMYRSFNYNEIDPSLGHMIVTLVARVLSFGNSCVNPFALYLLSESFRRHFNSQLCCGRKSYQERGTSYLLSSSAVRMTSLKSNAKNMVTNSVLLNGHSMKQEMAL
T9 sequence (Q01959 whole entry): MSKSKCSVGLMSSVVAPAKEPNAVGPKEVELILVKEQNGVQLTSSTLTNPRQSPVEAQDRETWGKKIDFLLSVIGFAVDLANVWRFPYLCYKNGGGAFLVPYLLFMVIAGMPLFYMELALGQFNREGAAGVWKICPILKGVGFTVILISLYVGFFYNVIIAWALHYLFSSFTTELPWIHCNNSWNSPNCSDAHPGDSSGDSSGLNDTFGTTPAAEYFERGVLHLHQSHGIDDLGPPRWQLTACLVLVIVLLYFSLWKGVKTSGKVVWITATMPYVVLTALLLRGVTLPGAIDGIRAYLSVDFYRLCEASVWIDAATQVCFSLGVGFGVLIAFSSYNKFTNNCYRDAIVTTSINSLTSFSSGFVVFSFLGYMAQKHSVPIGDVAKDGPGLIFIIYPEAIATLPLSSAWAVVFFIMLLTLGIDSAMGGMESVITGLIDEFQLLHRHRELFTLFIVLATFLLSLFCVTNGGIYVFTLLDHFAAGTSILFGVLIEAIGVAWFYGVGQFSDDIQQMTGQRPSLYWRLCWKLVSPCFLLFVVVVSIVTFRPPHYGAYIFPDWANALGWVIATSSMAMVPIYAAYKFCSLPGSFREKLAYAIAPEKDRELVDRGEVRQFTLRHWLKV
Sequence of Muscarinic M1 (P11229 whole entry): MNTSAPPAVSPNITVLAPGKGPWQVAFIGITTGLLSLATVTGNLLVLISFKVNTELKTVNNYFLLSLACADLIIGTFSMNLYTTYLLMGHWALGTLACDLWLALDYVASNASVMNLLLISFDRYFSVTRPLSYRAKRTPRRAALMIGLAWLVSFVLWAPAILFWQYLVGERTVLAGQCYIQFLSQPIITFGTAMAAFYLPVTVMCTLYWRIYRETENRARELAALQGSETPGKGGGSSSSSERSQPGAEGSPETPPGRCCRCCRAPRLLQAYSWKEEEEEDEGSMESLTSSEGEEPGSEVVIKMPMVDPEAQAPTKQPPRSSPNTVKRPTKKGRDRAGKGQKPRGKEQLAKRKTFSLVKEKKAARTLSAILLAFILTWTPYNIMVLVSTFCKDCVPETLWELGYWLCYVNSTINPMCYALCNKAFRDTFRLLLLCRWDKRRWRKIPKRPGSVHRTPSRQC
T10 sequence (P28335 33-458): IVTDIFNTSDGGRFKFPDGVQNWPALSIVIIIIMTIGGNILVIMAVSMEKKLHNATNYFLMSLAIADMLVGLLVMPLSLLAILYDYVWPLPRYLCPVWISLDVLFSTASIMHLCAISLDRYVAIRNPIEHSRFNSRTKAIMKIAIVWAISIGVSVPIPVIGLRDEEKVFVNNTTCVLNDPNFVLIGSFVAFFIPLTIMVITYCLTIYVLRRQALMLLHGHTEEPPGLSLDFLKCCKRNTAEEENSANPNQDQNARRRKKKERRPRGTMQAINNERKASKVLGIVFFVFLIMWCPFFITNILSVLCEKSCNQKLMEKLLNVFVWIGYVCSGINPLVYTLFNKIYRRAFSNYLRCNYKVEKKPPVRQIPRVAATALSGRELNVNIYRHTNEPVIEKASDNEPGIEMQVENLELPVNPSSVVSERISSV

As to `Cc1cc(-c2ncnn2C)c2cccc(OCc3c(Cl)cc(F)cc3[C@H](C)NC(=O)COC(F)F)c2n1` [Compound 3, (S)-N-(1-(3-chloro-5-fluoro-2-((2-methyl-4-(1-methyl-1H-1,2,4-triazol-5-yl)quinolin-8-yloxy)methyl)phenyl)ethyl)-2-(difluoromethoxy)acetamide], the IC50 against dog B2 receptor was about 7.6 µM. Further, at dog B2 receptor, the Kb is about 2.7 µM. The “% Inhibition @ 10 µM” value in the data set on Thyroid hormone is recorded as 6.4%; in data set [2] it was 7.3%; in data set [3] it was -3.4%. In addition, the inhibition at 10 µM in data set [1] is -8%; on Serotonin 5-HT2B it was -8.9%; on Bombesin BB1 [4] (CHO, read-out: % inhibition of reference agonist response @ 10 µM (antagonist effect), Neuromedin B (0.1 nM)) it was 28.5%; on Adenosine A3, 39.8%; in data set [5], -6%; in data set [6] it was 0.9%. Moreover, the inhibition at 10 µM is 2.2% on Dopamine transporter; 5% at Serotonin 5-HT2C; 1% in data set [7]; -4.1% on Angiotensine AT1; 3.7% at Muscarinic M1; -3.8% on Serotonin 5-HT2A. In addition, the inhibition at 10 µM at Bombesin BB1 [8] was 6.7%; at Serotonin 5-HT1B, -2.5%. On Bombesin BB1 [4] (reference neuromedin B (10 nM)), the “% of reference agonist response @ 10 µM (agonist effect)” value is recorded as 4.4%. Also, the “Caco-2 AB, apparent permeation rate apical to basolateral direction” value in the data set with Caco-2 cell monolayer is reported as > 10^-5 cm/s. Also, at 5-HT2A receptor, the “effect on serotonin-induced contraction” value is recorded as “Lack of antagonist effect”.
